Results from patent US20090197922A1, “COMPOSITIONS AND METHODS FOR TREATING PULMONARY HYPERTENSION” (The University of Chicago, priority 2006, published 2009).

What was measured:
[1] = test system: hypoxia-induced model of pulmonary hypertension in Dahl SS rats; test: Echocardiography in hypoxia/SU5416 model of pulmonary hypertension; type: in vivo, rat; set-up: CO (PA): unit not given beside the values; RVAW / LVPW / CO (Ao) / MPA: unit not given here; details: echocardiogram
Description: As part of the spectrum of sorafenib's pharmacologic activity overlaps with SU5416, a study was performed to determine whether sorafenib had similar effects or with additional mechanisms of inhibitory activity could counteract the effects of SU5416. […] Echocardiograms were performed on all rats at the start of the study. Except for the normoxia group, all rats were maintained in a hypoxia chamber with a partial pressure of oxygen of 10% FiO2 for the duration of the study. Rats in the two SU5416 groups received one subcutaneous injection of SU5416 at the start of the study (20 mg/kg). Stock sorafenib solutions were prepared every three days, crushing and dissolving sorafenib tablets in EL/ethanol (50:50; Sigma Cremophor EL, 95% ethyl alcohol) at final concentration of 4 mg/mL, protected from light exposure and stored at room temperature. Final dosing solutions were prepared on the day of use by dilution of the stock solution to 1 mg/mL with water and administered by gavage to the rats daily. After 3 weeks, all rats had echocardiography and hemodynamic studies. Organ and blood specimens were obtained for further evaluation. […] RV 3DE measurements were also determined (diameters+area), A=RV major diameter, B=RV annulus diastolic diameter & area, C=RV at ⅓ RV major diameter & area, D=RV at ⅔ RV major diameter & area.
(§1) Echocardiograms were performed on all rats at the start of the experiment. Except for the normoxia group, all rats were maintained in a hypoxia chamber with a partial pressure of oxygen of 10% FiO2 for the duration of the experiment. Rats in the 2 SU5416 groups received one subcutaneous injection of SU5416 at the start of the experiment (20 mg/kg). Stock sorafenib solutions were prepared every three days, crushing and dissolving sorafenib tablets in EL/ethanol (50:50; Sigma Cremophor EL, 95% ethyl alcohol) at final concentration of 4 mg/mL, protected from light exposure and stored at room temperature. Final dosing solutions were prepared on the day of use by dilution of the stock solution to 1 mg/mL with water and administered by gavage to the rats daily. After 3 weeks, all rats had echocardiography and hemodynamic studies. Organ and blood specimens were obtained for further evaluation.

[2] = Body weight of rats in hypoxia/SU5416 study; type: in vivo, rat; details: Dahl SS rats
Description: as §1, with “Fifteen Dahl Salt Sensitive strain rats were divided into 5 groups: normoxia+vehicle (normal, healthy control), hypoxia+vehicle (hypoxia control), hypoxia+SU5416 (positive control), hypoxia+sorafenib (safety comparison with SU5416), and hypoxia+sorafenib+SU5416 (therapeutic activity assessment). Echocardiograms” for “Echocardiograms”

[3] = test system: rat lung vasculature; test: Rat lung histopathology (H&E sections, Heath-Edwards grading); type: in vivo; details: Dahl SS rats, Hypoxia+SU5416+Sorafenib vs Hypoxia+SU5416, H/E sections
Description: The Heath-Edwards grading system grades pulmonary hypertension by microscopic features. The general classification is as follows:
Protocol includes an initial administration of SU5416 subcutaneously at 20 mg/kg followed daily by sorenfenib oral daily doses of 2.5 mg/kg. Some animals were exposed to chronic hypoxia (10% O2). The animals were divided into five experimental groups: hypoxia+sorafenib; hypoxia+SU5416+sorafenib, normoxia+vehicle control; Hypoxia+vehicle; and hypoxia+SU5416. PAP, RVSP, Echo, and DNA microarrays were used to measure various physiological and molecular biological parameters. FIG. 4 illustrates that hypoxia/SU5416-induces increases in right heart pressures and right heart hypertrophy (RV/LV+Septum).

[4] = test system: rat lung tissue; test: Expression profiling of rat lung tissue RNA (Rat Chip II, Affymetrix); type: in vivo; details: compared to normoxia; GCRMA normalization, SAM (δ>0.639, minimum fold change>1.7)
From the text: To study potential mechanisms of sorafenib effects on PH RNA was isolated from rat lung tissue and analyzed using the Rat Chip II (Affymetrix). […] Mechanisms of PAH pathobiology is poorly understood therefore, to explore potential mechanistic pathways the inventors conducted bioinformatic studies and expression profiling. […] The candidate genes identified fell into various gene ontology classes, for example 4% were in the lung development and growth factors class (e.g., Bambi, Tgfb3, Ltbp2), 13% in the cell migration/ECM class (e.g., Itga3_predicted, Cspg4, Cxcll2, Reln, Col18a1, Cthrc1, Hmgcr, Cnn1, Col6a2, Jag2), 4% in the apoptosis class (e.g., Anzal, Col18a1, Jag2), 4% in the smooth muscle/fiber formation class (e.g., Des, Tpm3, Jph2), 10% in the cell proliferation class (e.g., Anxal, Timp1, Lamb—1 predicted, Cspg4, Cxcll2, Gja4, Jag2, Tgfb3), 6% in the blood vessel development class (e.g., Cxcll2, Cspg4, Gja4, Col18a1, Serpine1), and 5% in the angiogenesis class (Cxcl12, Cspg4, Col18a1, Serpine1).

[5] = cited from earlier work
[6] = PRE (baseline at start of experiment)

CNC(=O)c1cc(Oc2ccc(NC(=O)Nc3ccc(Cl)c(C(F)(F)F)c3)cc2)ccn1 [Sorafenib]
CI (Ao) ([1]; POST (after 3 weeks hypoxia)): 1.00 ± 0.80
CI(PA) ([1]; POST (after 3 weeks hypoxia)): 0.82 ± 0.17
CO (Ao) ([1]; POST (after 3 weeks hypoxia)): 326 ± 246
CO (PA) ([1]; POST (after 3 weeks hypoxia)): 271 ± 48
FS (%) ([1]; POST (after 3 weeks hypoxia)): 68 ± 20%
LV Mass (gram) ([1]; POST (after 3 weeks hypoxia)): 1.30 ± 0.10 gram
LVPW ([1]; POST (after 3 weeks hypoxia)): 0.18 ± 0.03
MPA ([1]; POST (after 3 weeks hypoxia)): 0.38 ± 0.07
PA PG (mmHg) ([1]; POST (after 3 weeks hypoxia)): 3.87 ± 0.95 mmHg
TV max PG (mmHg) ([1]; POST (after 3 weeks hypoxia)): 4.85 ± 3.46 mmHg
CI (Ao) [1, 6]: 1.77 ± 1.30
CI(PA) [1, 6]: 1.70 ± 1.43
CO (Ao) [1, 6]: 577 ± 418
CO (PA) [1, 6]: 551 ± 467
FS (%) [1, 6]: 78 ± 5%
LV Mass (gram) [1, 6]: 1.60 ± 0.30 gram
LVPW [1, 6]: 0.21 ± 0.03
MPA [1, 6]: 0.48 ± 0.07
PA PG (mmHg) [1, 6]: 6.10 ± 5.52 mmHg
RVAW [1, 6]: 0.11
Wt ([2]; POST (after 3 weeks hypoxia)): 331 ± 15 g
Wt [2, 6]: 328 ± 10 g
remodeling of the lung vasculature (histopathology, Heath-Edwards grading) [3]: Prevents Remodeling
remodeling of the lung vasculature (histopathology, Heath-Edwards grading) ([3]; listed as sorafenib): dramatic improvement
genes differentially regulated [4]: at least 179 genes
MTD ([5]; known MTD, oral): 400 mg twice daily
drug interactions with warfarin or digoxin ([5]; previous sorafenib studies): have not demonstrated known drug interactions
